Data taken from US11590139B2, “Substituted aminopurine compounds, compositions thereof, and methods of treatment therewith” (Signal Pharmaceuticals, LLC, priority 2014, dated 2023).
pIC50: −log10 of the molar value. Where two headings read alike, the source gives them in different places.

System: Lox-IMVI melanoma cell line
Experiment: Lox-IMVI anti-proliferative assay (growth inhibition, Cell Titer-Glo)
Type: cell-based, human
Settings: Homo sapiens
Summary of the method: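 First, compound was dispensed as a 10-point 3-fold series (0.5 nM–10 μM, duplicate). Then cells in RPMI + 10% FBS were added and grown 72 h at 37 °C with 0.2% DMSO. Finally, ATP luminescence was read and IC50 calculated versus DMSO control.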

[1] = IC50 activity level in the cell-based Lox-IMVI anti-proliferative assay, read-out: Activity
[2] = Lox-IMVI melanoma cell line, anti-proliferative assay, read-out: Activity (IC50 activity level)

Row | pIC50 [1] | SMILES | other results
1 | < 6.00 | NC(=O)[C@H]1CC[C@@H](n2c(Nc3c(F)cccc3F)nc3cnc(NC4CC5(COC5)C4)nc32)CC1 [Example 173, (1s,4s)-4-(2-(2-oxaspiro[3.3]heptan-6-ylamino)-8-(2,6-difluorophenylamino)-9H-purin-9-yl)cyclohexanecarboxamide] | 
2 | < 6.00 | CC(C)(C)OC(=O)N1CCC[C@@H](Nc2ncc3nc(Nc4c(F)cccc4F)n([C@H]4CC[C@@H](C(N)=O)CC4)c3n2)C1 [Example 159, (R)-tert-butyl 3-(9-((1s,4S)-4-carbamoylcyclohexyl)-8-(2,6-difluorophenylamino)-9H-purin-2-ylamino)piperidine-1-carboxylate] | 
3 | < 6.00 | CC[C@H](CO)Nc1ncc2nc(Nc3c(Cl)cc(Cl)cc3Cl)n([C@H]3CC[C@@H](C(N)=O)CC3)c2n1 [Example 137, (1S,4s)-4-(2-((R)-1-hydroxybutan-2-ylamino)-8-(2,4,6-trichlorophenylamino)-9H-purin-9-yl)cyclohexanecarboxamide] | 
4 |  | N#Cc1cc(F)c(Nc2nc3cnc(NC4CC(F)(F)C4)nc3n2[C@H]2CC[C@@H](C(N)=O)CC2)c(F)c1 [Example 401, (1s,4s)-4-(8-(4-cyano-2,6-difluorophenylamino)-2-(3,3-difluorocyclobutylamino)-9H-purin-9-yl)cyclohexanecarboxamide] | pIC50 (Lox-IMVI anti-proliferative assay, IC50 activity level, read-out: Activity): < 6.00
5 | < 6.00 | Cc1ccc(Nc2nc3cnc(NC4CCOCC4)nc3n2[C@H]2CC[C@@H](C(N)=O)CC2)c(Cl)c1Cl [Example 85, (1s,4s)-4-(8-(2,3-dichloro-4-methylphenylamino)-2-(tetrahydro-2H-pyran-4-ylamino)-9H-purin-9-yl)cyclohexanecarboxamide] | 
6 |  | N#Cc1cc(F)c(Nc2nc3cnc(N[C@@H]4CCCN(c5ccccc5)C4)nc3n2[C@H]2CC[C@@H](C(N)=O)CC2)c(Cl)c1 [Example 750, (1S,4s)-4-(8-(2-chloro-4-cyano-6-fluorophenylamino)-2-((R)-1-phenylpiperidin-3-ylamino)-9H-purin-9-yl)cyclohexanecarboxamide] | pIC50 [2]: < 6.00
7 | < 6.00 | CC[C@@H](CO)Nc1ncc2nc(Nc3c(Cl)cc(F)cc3Cl)n([C@H]3CC[C@@H](C(N)=O)CC3)c2n1 [Example 145, (1R,4s)-4-(8-(2,6-dichloro-4-fluorophenylamino)-2-((S)-1-hydroxybutan-2-ylamino)-9H-purin-9-yl)cyclohexanecarboxamide] | 
8 |  | C[C@]1(C(N)=O)CC[C@@H](n2c(Nc3c(Cl)cc(Cl)cc3Cl)nc3cnc(N[C@@H]4CCOC[C@H]4F)nc32)CC1 [Example 718, (1S,4s)-4-(2-((3S,4R)-3-fluorotetrahydro-2H-pyran-4-ylamino)-8-(2,4,6-trichlorophenylamino)-9H-purin-9-yl)-1-methylcyclohexanecarboxamide] | pIC50 [2]: > 6.60
9 |  | NC(=O)[C@H]1CC[C@@H](n2c(Nc3c(F)cc(F)cc3Cl)nc3cnc(N[C@@H]4CCOC[C@H]4F)nc32)CC1 [Example 630, (1S,4s)-4-(8-(2-chloro-4,6-difluorophenylamino)-2-((3S,4R)-3-fluorotetrahydro-2H-pyran-4-ylamino)-9H-purin-9-yl)cyclohexanecarboxamide] | pIC50 [2]: > 6.60
10 | 6.00 to 6.30 | NC(=O)[C@H]1CC[C@@H](n2c(Nc3c(Cl)cc(F)cc3Cl)nc3cnc(N[C@H]4CCOC4)nc32)CC1 [Example 243, (1R,4s)-4-(8-(2,6-dichloro-4-fluorophenylamino)-2-((S)-tetrahydrofuran-3-ylamino)-9H-purin-9-yl)cyclohexanecarboxamide] | 
11 | 6.00 to 6.30 | NC(=O)[C@H]1CC[C@@H](n2c(Nc3c(F)cccc3Cl)nc3cnc(NC4CCC(F)(F)CC4)nc32)CC1 [Example 235, (1s,4s)-4-(8-(2-chloro-6-fluorophenylamino)-2-(4,4-difluorocyclohexylamino)-9H-purin-9-yl)cyclohexanecarboxamide] | 
